Measurements as given in patent publication US11505532B2, “SSAO inhibitor” (SHANDONG DANHONG PHARMACEUTICAL CO., LTD., priority 2017, dated 2022).

Key:
[1] = Distribution of compounds in liver and blood of CD-1 mice; assay type: in vivo; details: single oral dose; for Liver Concentration (@1.0 hour) / Plasma Concentration (@1.0 hour): 1 hour after administration; for Liver Concentration/Plasma Concentration (@1.0 hour) / Liver Concentration/Plasma Concentration (@4.0 hour): ratio; for Liver Concentration (@4.0 hour) / Plasma Concentration (@4.0 hour): 4 hours after administration
Procedure: Experimental purpose: distribution of compounds in liver and blood of CD-1 mice was tested;
CD-1 Mice (male, 25-35 g, 6-9 weeks old, Shanghai Slack);
Experimental procedure: after oral administration, the drug was distributed in the liver and blood of rodents, candidate compounds in the experiment were formulated into a clear solution to be administered to mice in a single oral dose. The oral solvent was a certain proportion of an aqueous solution of hydroxypropyl β-cyclodextrin or a physiological saline solution. The concentration of the drug in the liver and blood was measured at 1 hour and 4 hours after administration.

[2] = biological target: hERG potassium ion channel (Homo sapiens (Human), UniProt Q12809); experiment: Inhibition test of hERG potassium ion channel (automatic patch clamp, CHO-hERG cells); assay type: cell-based; details: conclusion in words
hERG potassium ion channel, sequence (Q12809 whole entry): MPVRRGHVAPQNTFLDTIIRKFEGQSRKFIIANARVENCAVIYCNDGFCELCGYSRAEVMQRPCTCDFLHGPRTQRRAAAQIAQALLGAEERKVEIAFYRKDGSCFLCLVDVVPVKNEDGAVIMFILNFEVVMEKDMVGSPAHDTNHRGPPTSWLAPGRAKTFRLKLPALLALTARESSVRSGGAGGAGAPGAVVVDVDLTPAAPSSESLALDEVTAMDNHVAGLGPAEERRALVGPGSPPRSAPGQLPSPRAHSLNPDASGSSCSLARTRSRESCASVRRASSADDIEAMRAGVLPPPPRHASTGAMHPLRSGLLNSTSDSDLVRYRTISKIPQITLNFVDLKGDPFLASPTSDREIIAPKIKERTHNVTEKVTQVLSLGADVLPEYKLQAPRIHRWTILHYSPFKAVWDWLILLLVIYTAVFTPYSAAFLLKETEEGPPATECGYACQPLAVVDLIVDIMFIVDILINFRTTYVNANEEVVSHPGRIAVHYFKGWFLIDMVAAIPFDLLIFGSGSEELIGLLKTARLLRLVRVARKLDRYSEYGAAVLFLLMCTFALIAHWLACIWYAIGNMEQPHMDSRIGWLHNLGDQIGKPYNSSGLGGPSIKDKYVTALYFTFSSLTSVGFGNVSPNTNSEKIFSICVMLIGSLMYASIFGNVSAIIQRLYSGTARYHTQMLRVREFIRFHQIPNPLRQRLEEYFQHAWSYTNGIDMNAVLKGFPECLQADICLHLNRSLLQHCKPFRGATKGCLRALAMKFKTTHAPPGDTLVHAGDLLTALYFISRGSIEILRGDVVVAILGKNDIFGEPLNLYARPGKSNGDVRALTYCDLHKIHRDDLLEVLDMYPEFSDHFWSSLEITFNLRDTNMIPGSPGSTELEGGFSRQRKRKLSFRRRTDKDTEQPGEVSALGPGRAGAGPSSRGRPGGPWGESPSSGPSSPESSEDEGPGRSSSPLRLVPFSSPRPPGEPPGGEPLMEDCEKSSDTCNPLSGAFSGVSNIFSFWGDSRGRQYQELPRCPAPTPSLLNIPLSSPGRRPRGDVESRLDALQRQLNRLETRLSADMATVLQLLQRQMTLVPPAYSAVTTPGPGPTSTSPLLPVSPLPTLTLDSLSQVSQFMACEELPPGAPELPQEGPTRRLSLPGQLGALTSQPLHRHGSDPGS
Procedure: The effect of the to-be-tested compound on the potassium ion channel of hERG was detected by a fully automatic patch clamp method.
The cells stably expressing hERG potassium channel used in the experiment were obtained from CHO-hERE of Aviva Biosciences, and CHO-hERG was cultured in 5% CO2 at 37° C.
CHO-hERG cells prepared for the experiment were cultured for at least two days, and the cell density reached 75% or more. Prior to the start of the experiment, cells were digested with TrypLE and then resuspended in extracellular fluid to collect the cells.
Extracellular fluids need to be prepared once a month. The intracellular fluid need to be subpackaged and frozen at −20° C.
The to-be-tested compound and the positive control Amitriptyline were dissolved in DMSO to a certain concentration of the stock solution, and then diluted according to different gradients, and finally added to the extracellular fluid in a certain ratio, and diluted to a concentration to be measured. Visual inspection was performed to see if there was any precipitation before the start of the experiment. Finally, the concentration of DMSO in the to-be-tested solution and the positive control Amitriptyline should not exceed 0.3%. […]
In each complete current record, based on the percentage of peak current in the negative control, the percent inhibition of the concentration of each compound can be calculated. […]

VAP-1/SSAO [3] = biological target: T1, VAP-1/SSAO (Homo sapiens (Human), UniProt Q16853); experiment: VAP-1 cell activity assay (HUVEC or CHO cells transfected with VAP-1/pCDNA(3.1) plasmid, Amplex Red); assay type: cell-based; details: HUVEC or CHO cells transfected with VAP-1 plasmid; read-out: VAP-1/SSAO Cellular Inhibitory Activity IC50
T1 sequence (Q16853 whole entry): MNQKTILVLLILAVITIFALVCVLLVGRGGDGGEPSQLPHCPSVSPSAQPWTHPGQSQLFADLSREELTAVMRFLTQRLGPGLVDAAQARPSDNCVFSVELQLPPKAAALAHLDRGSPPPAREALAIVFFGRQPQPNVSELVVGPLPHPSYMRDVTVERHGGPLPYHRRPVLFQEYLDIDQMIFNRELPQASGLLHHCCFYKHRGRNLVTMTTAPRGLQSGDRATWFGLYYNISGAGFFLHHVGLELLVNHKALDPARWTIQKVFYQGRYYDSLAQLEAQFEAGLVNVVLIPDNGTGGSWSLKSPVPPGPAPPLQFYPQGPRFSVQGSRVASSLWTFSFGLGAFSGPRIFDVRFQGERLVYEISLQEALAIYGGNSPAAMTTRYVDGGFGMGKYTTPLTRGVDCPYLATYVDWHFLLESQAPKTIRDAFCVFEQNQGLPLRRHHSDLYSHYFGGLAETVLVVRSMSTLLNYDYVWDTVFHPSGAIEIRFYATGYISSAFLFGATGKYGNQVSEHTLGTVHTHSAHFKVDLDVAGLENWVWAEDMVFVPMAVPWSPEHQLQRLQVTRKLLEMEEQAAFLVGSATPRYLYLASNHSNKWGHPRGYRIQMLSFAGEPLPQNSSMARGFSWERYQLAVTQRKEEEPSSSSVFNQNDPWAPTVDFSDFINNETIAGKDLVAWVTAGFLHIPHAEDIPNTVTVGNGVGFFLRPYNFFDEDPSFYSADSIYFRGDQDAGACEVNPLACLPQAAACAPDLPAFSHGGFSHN
Procedure: The inhibition of the sample on VAP-1 cell activity was measured by using an Amplex® Red Monoamine Oxidase kit (Invitrogen #A12214).
The cultured HUVEC or CHO cells were plated into a 6-well plate at a density of 0.8 M/well, placed in a 37° C., 5% CO2 incubator for incubation for 24 hours, and then the cells was transferred with a Lipo2000 reagent and a VAP-1/pCDNA (3.1) plasmid, and liquid was changed for the cells after 5 hours (Lipo2000 was toxic to the cells); after 24 hours, the cells were digested and plated into 384-well plates with a density of 25 μl, 10000 cells/well, and liquid was replaced with medium without FBS for the cells after 6-7 hours, and the cell plates were incubated overnight at 37° C. in a 5% CO2 incubator.
1) Dilution of the compound: serial dilution in 4× gradient was carried out with 100% DMSO, 10 points were diluted, the starting concentration of the to-be-tested compound was 0.5 mM (final concentration was 1) μM); 100 nl of compound solution was transferred to a 384-well cell assay plate with ECHO. […]
5) The reaction was carried out in the dark at room temperature for 60 minutes, and the fluorescence value was measured by Envision: the excitation wave was 535 nm, and the emission wave was 590 nm. […]
7) The data were analyzed with Prism. The IC50 of the sample against VAP-1 cells was calculated.

VAP-1/SSAO [4] = biological target: T1, VAP-1/SSAO; experiment: Human VAP-1 enzyme activity assay (Amplex Red Monoamine Oxidase kit); assay type: biochemical; details: 10 nM VAP-1 enzyme, 30 min preincubation, benzylamine substrate; read-out: Human Recombinant VAP-1/SSAO Enzyme Inhibitory Activity IC50
Procedure: Human VAP-1 Enzyme Activity Assay:
The inhibition of the sample on VAP-1 enzyme activity was measured by using an Amplex® Red Monoamine Oxidase kit (Invitrogen #A12214). 100 nL of the gradiently-diluted to-be-tested compound (solvent DMSO) was added to a 384-well plate. 25 μL of 10 nM VAP-1 enzyme solution was added and incubated for 30 minutes at room temperature. A substrate mixture of VAP-1 enzyme (200 μM Amplex Red, 1 U/mL HRP, 1 mM Benzylamine) was added and incubated for 60 minutes at room temperature. After the incubation, the fluorescent signal was read with a microplate reader Envision (excitation light wavelength 530-560 nm, emission light wavelength 590 nm). The fluorescence signal value after the background signal was removed was analyzed by Prism software, and the IC50 of the sample against the VAP-1 enzyme was calculated.

[5] = test system: CCl4-induced chronic liver fibrosis male C57BL/6 model; experiment: Oral CCl4-induced chronic liver fibrosis model; assay type: in vivo, C57BL/6 mice; details: oral daily for 28 days, superior to PXS-4728A in the same dosage
Procedure: The therapeutic effect of compounds on an oral CCl4-induced chronic liver fibrosis male C57BL/6 model was tested.
Male C57BL/6 mice, 7-8 weeks old;
Experimental method: Male C57BL/6 mice were orally administered from the day CCl4 was put for modeling, and administered daily. Continuous administration was conducted for 28 days. The animals were fasted for at least 6 hours on the next day after the last administration Animal weight was measured during euthanasia and all animals were euthanized under the guidance of the KCl Animal Euthanasia SOP. Non-anticoagulant venous blood of mice was collected from the ocular venous plexus. The whole blood was allowed to stand at room temperature for 30 minutes, and centrifuged at 5000 rpm for 5 minutes, and the serum was separated and placed in a 1.5 ml EP tube and stored at −80° C. After the whole body of the animal was perfused with hypothermic saline, the liver was taken and subjected to tissue gross image acquisition. The left lobe of the liver was divided into 4 equal parts and put into 4 tissue cryotubes for liquid nitrogen freezing, and then transferred to −80° C. for storage. The rest of the liver tissue was fixed in 10% neutral formalin fixative. […] HE staining was subjected to double-blind score by two pathological readers, and the area of hepatic fibrosis was analyzed for sirius-red stained sections by digital pathology.

## CC(C)(C)NC(=O)c1ccc(OC/C(=C/F)CN)cc1.Cl [PXS-4728A, reference compound]
[1]
  Liver Concentration (@1.0 hour): 13140
  Plasma Concentration (@1.0 hour): 1470
  Liver Concentration/Plasma Concentration (@1.0 hour): 10
  Liver Concentration (@4.0 hour): 2120
  Plasma Concentration (@4.0 hour): 154
  Liver Concentration/Plasma Concentration (@4.0 hour): 14

## Cc1noc(-c2ccc(OC/C(=C/F)CN)cc2)n1.Cl [WX008]
[2]
  inhibition of hERG potassium current: weak inhibition

## Cn1nc(-c2ccc(OC/C(=C/F)CN)cc2F)nc1C1CC1 [WX098]
VAP-1/SSAO [3]
  IC50: 0.2 nM
VAP-1/SSAO [4]
  IC50: 1.8 nM

## Cl.Cn1nc(-c2ccc(OC/C(=C/F)CN)cc2)nc1C(F)F [WX126]
[2]
  inhibition of hERG potassium current: weak inhibition
[5]
  effect on liver fibrosis (Sirius-Red staining): obvious improvement effect
  effect on liver injury (liver injury score, HE staining): obvious improvement effect
[1]
  Liver Concentration (@1.0 hour): 13520
  Plasma Concentration (@1.0 hour): 934
  Liver Concentration/Plasma Concentration (@1.0 hour): 15
  Liver Concentration (@4.0 hour): 3364
  Plasma Concentration (@4.0 hour): 190
  Liver Concentration/Plasma Concentration (@4.0 hour): 17
